This note sets out measurements from ChEMBL document CHEMBL2074297, “Identification of phalloidin uptake systems of rat and human liver” (Biochim Biophys Acta, 2004).

Starred links: 1 amine or outer side, 2 acyl side, 3 side chain; linkers in the order of their positions; H or OH if unused. Positions of bridges follow the written chain, without caps; N, C: chain ends. Non-standard residues stand in square brackets, D forms with d. Residues, ends and D or L forms follow the SMILES beside them. Trp(2-yl) = O=C([C@H](Cc1c([*:3])[nH]c2ccccc12)N[*:1])[*:2]; Leu(4R-OH,5-OH) = C[C@](O)(CO)C[C@H](N)C(=O)O; cisHyp = O=C(O)[C@@H]1C[C@H](O)CN1

Data set [1] addresses T1, Solute carrier organic anion transporter family member 1B3 (OATP1B3) (Homo sapiens, UniProt Q9NPD5).
T1 sequence (Q9NPD5 whole entry): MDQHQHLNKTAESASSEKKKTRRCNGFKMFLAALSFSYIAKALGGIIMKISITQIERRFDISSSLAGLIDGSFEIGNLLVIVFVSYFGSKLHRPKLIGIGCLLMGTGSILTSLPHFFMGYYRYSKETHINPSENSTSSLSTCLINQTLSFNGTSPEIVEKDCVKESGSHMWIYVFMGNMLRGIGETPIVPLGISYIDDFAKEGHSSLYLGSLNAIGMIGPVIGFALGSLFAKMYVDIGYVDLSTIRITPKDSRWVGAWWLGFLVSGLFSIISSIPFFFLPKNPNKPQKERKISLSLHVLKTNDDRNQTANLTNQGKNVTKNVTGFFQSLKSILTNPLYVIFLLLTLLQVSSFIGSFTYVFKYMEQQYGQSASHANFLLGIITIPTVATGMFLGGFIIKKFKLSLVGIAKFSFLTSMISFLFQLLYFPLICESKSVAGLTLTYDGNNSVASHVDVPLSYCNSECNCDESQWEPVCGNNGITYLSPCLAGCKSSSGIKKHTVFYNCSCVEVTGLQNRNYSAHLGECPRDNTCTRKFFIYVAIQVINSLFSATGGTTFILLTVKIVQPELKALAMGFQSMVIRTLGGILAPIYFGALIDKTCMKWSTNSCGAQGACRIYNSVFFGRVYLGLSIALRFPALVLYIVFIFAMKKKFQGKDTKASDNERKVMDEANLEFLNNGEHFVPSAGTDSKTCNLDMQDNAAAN
Kind of data set: (§1) TP_TRANSPORTER: uptake in Xenopus laevis oocytes. The class given is functional, cell-based, Oocyte. The conditions noted are these: Xenopus laevis oocytes expressing the transporter.

The target in data set [2] is T2, Solute carrier organic anion transporter family member 1B1 (OATP1B1) (Homo sapiens, UniProt Q9Y6L6).
T2 sequence (Q9Y6L6 whole entry): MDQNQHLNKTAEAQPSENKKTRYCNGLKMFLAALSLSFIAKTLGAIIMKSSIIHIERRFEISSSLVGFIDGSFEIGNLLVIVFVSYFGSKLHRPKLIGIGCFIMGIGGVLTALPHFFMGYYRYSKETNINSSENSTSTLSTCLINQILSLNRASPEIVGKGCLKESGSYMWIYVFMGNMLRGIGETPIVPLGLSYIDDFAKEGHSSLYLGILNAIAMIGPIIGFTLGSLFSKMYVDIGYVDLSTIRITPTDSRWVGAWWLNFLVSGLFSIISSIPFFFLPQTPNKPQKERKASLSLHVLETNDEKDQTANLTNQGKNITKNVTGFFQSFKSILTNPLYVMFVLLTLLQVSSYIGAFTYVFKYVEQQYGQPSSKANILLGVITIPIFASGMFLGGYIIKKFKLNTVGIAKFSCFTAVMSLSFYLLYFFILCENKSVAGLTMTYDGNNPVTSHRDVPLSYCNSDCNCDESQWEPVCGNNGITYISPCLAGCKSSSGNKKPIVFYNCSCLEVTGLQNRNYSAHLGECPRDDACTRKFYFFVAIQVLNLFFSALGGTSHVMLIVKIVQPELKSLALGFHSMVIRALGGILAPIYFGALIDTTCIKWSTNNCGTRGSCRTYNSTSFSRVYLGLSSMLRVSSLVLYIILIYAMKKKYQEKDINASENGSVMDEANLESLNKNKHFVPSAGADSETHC
The data set is described as §1. The class given is functional, cell-based, Oocyte. The conditions noted are these: Xenopus laevis oocytes expressing the transporter.

Data set [3] has as its target T3, Solute carrier organic anion transporter family member 1B2 (OATP1B2) (Rattus norvegicus, UniProt Q9QZX8).
T3 sequence (Q9QZX8 whole entry): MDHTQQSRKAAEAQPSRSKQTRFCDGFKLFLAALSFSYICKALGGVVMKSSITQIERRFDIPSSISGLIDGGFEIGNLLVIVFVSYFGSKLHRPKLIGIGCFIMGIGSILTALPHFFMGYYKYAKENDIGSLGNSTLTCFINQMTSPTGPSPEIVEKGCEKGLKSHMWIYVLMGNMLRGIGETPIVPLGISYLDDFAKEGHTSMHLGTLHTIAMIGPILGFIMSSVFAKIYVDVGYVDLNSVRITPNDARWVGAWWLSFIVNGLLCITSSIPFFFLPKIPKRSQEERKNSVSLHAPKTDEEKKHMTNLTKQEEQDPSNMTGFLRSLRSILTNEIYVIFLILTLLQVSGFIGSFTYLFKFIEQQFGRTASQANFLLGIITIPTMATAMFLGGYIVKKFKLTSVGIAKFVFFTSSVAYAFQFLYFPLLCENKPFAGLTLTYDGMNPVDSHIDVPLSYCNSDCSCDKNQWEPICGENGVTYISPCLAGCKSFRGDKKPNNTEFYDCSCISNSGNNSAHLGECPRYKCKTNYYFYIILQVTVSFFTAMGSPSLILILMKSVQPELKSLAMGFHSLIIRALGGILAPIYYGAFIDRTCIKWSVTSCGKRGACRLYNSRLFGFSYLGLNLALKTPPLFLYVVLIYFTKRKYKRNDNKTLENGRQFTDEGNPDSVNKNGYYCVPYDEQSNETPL
The data set is described as §1. The conditions noted are these: Xenopus laevis oocytes expressing the transporter. The class given is functional, cell-based, Oocyte.

Data set [4] has as its target T4, Hepatic sodium/bile acid cotransporter (Rattus norvegicus, UniProt P26435).
T4 sequence (P26435 whole entry): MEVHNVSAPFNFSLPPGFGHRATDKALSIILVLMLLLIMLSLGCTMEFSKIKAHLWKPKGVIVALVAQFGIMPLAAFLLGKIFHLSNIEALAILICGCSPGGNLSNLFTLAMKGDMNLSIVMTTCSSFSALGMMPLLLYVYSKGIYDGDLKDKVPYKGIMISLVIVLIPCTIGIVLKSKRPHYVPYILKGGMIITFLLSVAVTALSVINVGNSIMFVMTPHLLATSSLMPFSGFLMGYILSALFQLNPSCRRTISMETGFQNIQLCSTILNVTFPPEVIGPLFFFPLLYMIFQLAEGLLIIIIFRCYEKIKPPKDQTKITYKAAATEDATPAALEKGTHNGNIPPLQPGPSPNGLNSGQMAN
The description is as §1. The class given is functional, cell-based. The conditions noted are these: oocyte.

The target in data set [5] is T5, Solute carrier organic anion transporter family member 1A1 (Rattus norvegicus, UniProt P46720).
T5 sequence (P46720 whole entry): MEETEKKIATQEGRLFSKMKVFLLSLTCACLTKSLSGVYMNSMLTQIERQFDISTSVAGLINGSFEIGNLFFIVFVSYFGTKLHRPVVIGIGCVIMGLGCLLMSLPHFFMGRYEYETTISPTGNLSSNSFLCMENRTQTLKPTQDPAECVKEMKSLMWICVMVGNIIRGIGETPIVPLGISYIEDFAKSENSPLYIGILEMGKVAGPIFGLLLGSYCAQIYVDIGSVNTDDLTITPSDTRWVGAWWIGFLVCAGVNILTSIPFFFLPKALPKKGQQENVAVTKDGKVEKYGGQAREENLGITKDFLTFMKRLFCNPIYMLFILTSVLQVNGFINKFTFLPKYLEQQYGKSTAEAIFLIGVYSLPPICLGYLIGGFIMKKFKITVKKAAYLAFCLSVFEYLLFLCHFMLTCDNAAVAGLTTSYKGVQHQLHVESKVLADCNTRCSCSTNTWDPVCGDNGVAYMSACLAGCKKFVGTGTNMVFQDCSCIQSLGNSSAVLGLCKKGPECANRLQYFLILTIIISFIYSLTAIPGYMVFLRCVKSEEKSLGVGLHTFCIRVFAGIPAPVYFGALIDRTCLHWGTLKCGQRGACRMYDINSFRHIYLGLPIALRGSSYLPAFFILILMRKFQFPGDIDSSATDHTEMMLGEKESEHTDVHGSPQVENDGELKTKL
The data set is described as §1. The data set is classed as functional, cell-based. The conditions noted are these: oocyte.

The target of data set [6] is T6, Solute carrier organic anion transporter family member 1A4 (Rattus norvegicus, UniProt O35913).
T6 sequence (O35913 whole entry): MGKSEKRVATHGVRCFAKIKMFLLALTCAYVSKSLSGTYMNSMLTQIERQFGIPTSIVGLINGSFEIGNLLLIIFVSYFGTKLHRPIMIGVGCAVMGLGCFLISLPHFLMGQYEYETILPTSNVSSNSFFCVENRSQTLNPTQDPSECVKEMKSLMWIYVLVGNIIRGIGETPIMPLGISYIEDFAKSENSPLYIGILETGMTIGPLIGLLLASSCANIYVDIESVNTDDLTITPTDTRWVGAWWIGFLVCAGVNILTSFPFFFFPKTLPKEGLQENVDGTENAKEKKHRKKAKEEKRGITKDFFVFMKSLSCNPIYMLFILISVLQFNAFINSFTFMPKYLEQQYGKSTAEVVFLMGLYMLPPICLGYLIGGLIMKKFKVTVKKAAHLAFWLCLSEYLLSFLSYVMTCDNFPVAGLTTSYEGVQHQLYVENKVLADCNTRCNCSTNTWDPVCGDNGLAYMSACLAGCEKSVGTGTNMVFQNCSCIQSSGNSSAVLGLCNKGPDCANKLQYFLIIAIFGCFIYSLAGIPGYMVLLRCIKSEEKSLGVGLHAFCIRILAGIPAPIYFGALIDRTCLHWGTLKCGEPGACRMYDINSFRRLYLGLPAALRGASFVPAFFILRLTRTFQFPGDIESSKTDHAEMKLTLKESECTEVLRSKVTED
The data set is described as §1. The data set is classed as functional, cell-based. The conditions noted are these: oocyte.

Data set [7] has as its target T7, Solute carrier organic anion transporter family member 2B1 (Homo sapiens, UniProt O94956).
T7 sequence (O94956 whole entry): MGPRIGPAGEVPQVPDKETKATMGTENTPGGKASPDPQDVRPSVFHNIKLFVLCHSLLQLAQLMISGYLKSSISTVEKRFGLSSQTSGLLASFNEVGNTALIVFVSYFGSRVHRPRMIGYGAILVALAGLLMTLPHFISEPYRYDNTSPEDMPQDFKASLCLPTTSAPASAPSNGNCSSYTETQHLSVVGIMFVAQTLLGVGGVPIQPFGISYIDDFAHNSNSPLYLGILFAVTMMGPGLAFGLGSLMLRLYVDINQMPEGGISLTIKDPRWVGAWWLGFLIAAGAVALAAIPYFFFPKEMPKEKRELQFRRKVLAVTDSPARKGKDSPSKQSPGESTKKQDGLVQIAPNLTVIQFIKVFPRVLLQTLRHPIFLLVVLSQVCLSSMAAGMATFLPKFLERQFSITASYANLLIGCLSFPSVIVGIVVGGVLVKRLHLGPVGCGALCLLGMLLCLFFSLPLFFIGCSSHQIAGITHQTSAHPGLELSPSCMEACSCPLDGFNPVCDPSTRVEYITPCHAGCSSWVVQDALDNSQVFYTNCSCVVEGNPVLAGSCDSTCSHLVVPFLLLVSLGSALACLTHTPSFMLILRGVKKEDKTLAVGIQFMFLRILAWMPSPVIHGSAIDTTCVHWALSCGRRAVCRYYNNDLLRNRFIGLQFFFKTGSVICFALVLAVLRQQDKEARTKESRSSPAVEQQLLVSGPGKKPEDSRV
The data set is described as §1. The data set is classed as functional, cell-based. The conditions noted are these: oocyte.

Data set [8] deals with T8, Solute carrier organic anion transporter family member 1B2 (Rattus norvegicus, UniProt Q9QZX8).
T8 sequence (Q9QZX8 whole entry): T3 sequence (Q9QZX8 whole entry)
Kind of data set: (§2) TP_TRANSPORTER: inhibition of taurocholate uptake (taurocholate: 10 uM) in Xenopus laevis oocytes. The data set is classed as functional, cell-based. The conditions noted are these: oocyte.

For data set [9], the target named is T4, Hepatic sodium/bile acid cotransporter. Described as §2. The class given is functional, cell-based. The conditions noted are these: oocyte.
Data set [10] addresses T5, Solute carrier organic anion transporter family member 1A1. Described as §2. The class given is functional, cell-based. The conditions noted are these: oocyte.
In data set [11] the target is T6, Solute carrier organic anion transporter family member 1A4. Described as §2. The data set is classed as functional, cell-based. The conditions noted are these: oocyte.

Consider `CC(O)C[C@@H]1NC(=O)[C@@H]2Cc3c([nH]c4ccccc34)SC[C@@H](NC(=O)[C@H]([C@@H](C)O)NC(=O)[C@H](C)NC1=O)C(=O)N1C[C@H](O)C[C@H]1C(=O)N[C@@H](C)C(=O)N2` (stereo partly specified) [DEMETHYLPHALLOIN], for which the Michaelis-Menten constant (Km) (as a rule, the substrate concentration at which the rate is half of its maximum) in [1] is 7.5 µM; in data set [2], 17 µM; in data set [3], 5.7 µM. For the same molecule, the Activity result in [4], in [5], in data set [6] and in data set [7] was “is not a substrate [-]” each time.

On to `C[C@@H]1NC(=O)[C@H](C[C@@](C)(O)CO)NC(=O)[C@@H]2Cc3c([nH]c4ccccc34)SC[C@H](NC(=O)[C@@H]([C@H](C)O)NC1=O)C(=O)N1C[C@@H](O)C[C@H]1C(=O)N[C@@H](C)C(=O)N2` [PHALLOIDIN] (cyclo(A[dT]C[cisHyp]A[Trp(2-yl)][Leu(4R-OH,5-OH)]); thioether 3-6), for which the Activity result was “inhibitor [+]” in [8], “is not an inhibitor [-]” in data set [9], “is not an inhibitor [-]” in data set [10] and “is not an inhibitor [-]” in data set [11].
